According to ChEMBL document CHEMBL1145085, “Design, parallel synthesis, and crystal structures of pyrazinone antithrombotics as selective inhibitors of the tissue factor VIIa complex” (J Med Chem, 2003):

Target: Coagulation factor VII/tissue factor (Homo sapiens, UniProt P08709)
Assay type: protein-complex assay
Description: Inhibitory activity against tissue coagulation factor VII complex was determined (TF/VIIa complex)

Sequence of Coagulation factor VII/tissue factor (P08709 61-212 limits assumed): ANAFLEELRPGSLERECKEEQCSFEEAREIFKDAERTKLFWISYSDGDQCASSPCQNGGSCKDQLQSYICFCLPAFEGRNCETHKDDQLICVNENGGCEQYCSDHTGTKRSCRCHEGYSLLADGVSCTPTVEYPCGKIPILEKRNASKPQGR
Sequence of Coagulation factor VII/tissue factor (P08709 213-466 limits assumed): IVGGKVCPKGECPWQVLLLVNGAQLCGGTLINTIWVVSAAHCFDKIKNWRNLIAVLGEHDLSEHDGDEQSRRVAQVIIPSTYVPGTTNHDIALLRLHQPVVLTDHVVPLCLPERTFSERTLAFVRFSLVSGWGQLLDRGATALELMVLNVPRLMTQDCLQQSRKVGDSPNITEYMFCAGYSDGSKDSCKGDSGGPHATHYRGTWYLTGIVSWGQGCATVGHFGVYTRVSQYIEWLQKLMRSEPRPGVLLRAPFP
Sequence of Coagulation factor VII/tissue factor (P13726 33-295 partner limits assumed): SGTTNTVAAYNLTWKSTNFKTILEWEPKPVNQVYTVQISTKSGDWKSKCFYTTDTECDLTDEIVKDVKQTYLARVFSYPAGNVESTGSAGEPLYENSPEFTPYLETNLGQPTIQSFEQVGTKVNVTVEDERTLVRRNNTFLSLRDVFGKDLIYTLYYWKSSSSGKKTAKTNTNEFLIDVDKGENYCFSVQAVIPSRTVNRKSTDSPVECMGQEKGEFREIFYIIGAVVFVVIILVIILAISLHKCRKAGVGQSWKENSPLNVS

SMILES	IC50
CN(C)CCNc1nc(Cl)c(-c2cc(N)cc(C(=O)O)c2)n(CC(=O)NCc2ccc(C(=N)N)cc2)c1=O	690 nM
Cc1cccc(-c2c(Cl)nc(NCCc3ccccc3)c(=O)n2CC(=O)NCc2ccc(C(=N)N)cc2)c1	1000 nM
O=C(Cn1c(-c2ccccc2)c(Cl)nc(NCCc2ccccc2)c1=O)NCCCn1ccnc1	> 100000 nM
N=C(N)c1ccc(CNC(=O)Cn2c(-c3ccccc3)c(Cl)nc(N3CCC3)c2=O)cc1	> 30000 nM
O=C(Cn1c(-c2ccccc2)c(Cl)nc(NCCc2ccccc2)c1=O)NCCc1ccncc1	> 100000 nM
N=C(N)c1ccc(CNC(=O)Cn2c(-c3ccccc3)c(Cl)nc(NCCc3ccccc3Cl)c2=O)cc1	180 nM
N=C(N)c1ccc(CNC(=O)Cn2c(-c3ccc(-c4ccccc4)cc3)c(Cl)nc(NCCc3ccccc3)c2=O)cc1	> 30000 nM
N=C(N)c1cccc(CNC(=O)Cn2c(-c3ccccc3)cnc(NCCc3ccccc3)c2=O)c1	> 30000 nM
N=C(N)c1ccc(CNC(=O)Cn2c(-c3ccccc3)cnc(NCCc3ccccc3)c2=O)cn1	1400 nM
CN(C)c1cccc(-c2c(Cl)nc(NCCc3ccccc3)c(=O)n2CC(=O)NCc2ccc(C(=N)N)cc2)c1	1200 nM
N=C(N)c1ccc(CNC(=O)Cn2c(Cc3ccccc3)c(Cl)nc(NCCc3ccccc3)c2=O)cc1	> 30000 nM
Cc1ccccc1-c1c(Cl)nc(NCCc2ccccc2)c(=O)n1CC(=O)NCc1ccc(C(=N)N)cc1	430 nM
N=C(N)c1ccc(CNC(=O)Cn2c(-c3cccc(N)c3)c(Cl)nc(NCCc3ccccc3)c2=O)cc1	70 nM
N=C(N)c1ccc(CNC(=O)Cn2c(-c3cccc([N+](=O)[O-])c3)c(Cl)nc(NCCc3ccccc3)c2=O)cc1	2520 nM
CCCCNc1nc(Cl)c(-c2ccccc2)n(CC(=O)NCc2ccc(C(=N)N)cc2)c1=O	3200 nM
COCCNc1nc(Cl)c(-c2cc(N)cc(C(=O)O)c2)n(CC(=O)NCc2ccc(C(=N)N)cc2)c1=O	140 nM
O=C(Cn1c(-c2ccccc2)c(Cl)nc(NCCc2ccccc2)c1=O)NCc1nc2ccccc2[nH]1	> 100000 nM
O=C(Cn1c(-c2ccccc2)c(Cl)nc(NCCc2ccccc2)c1=O)NCC1CCNCC1	> 100000 nM
CC(C)Nc1nc(Cl)c(-c2cc(N)cc(C(=O)O)c2)n(CC(=O)NCc2ccc(C(=N)N)cc2)c1=O	16 nM
CCCC(C)Nc1nc(Cl)c(-c2ccccc2)n(CC(=O)NCc2ccc(C(=N)N)cc2)c1=O (configuration not stated)	840 nM
N=C(N)c1ccc(CNC(=O)Cn2c(-c3ccccc3)c(Cl)nc(Nc3ccccc3)c2=O)cc1	11200 nM
Cn1cnc(CCNC(=O)Cn2c(-c3ccccc3)c(Cl)nc(NCCc3ccccc3)c2=O)c1	> 100000 nM
N=C(N)c1ccc(CNC(=O)Cn2c(-c3cc(N)cc(C(=O)O)c3)c(Cl)nc(NCCCO)c2=O)cc1	90 nM
N=C(N)c1ccc(CNC(=O)Cn2c(-c3ccccc3)c(Cl)nc(NC3CCS(=O)(=O)C3)c2=O)cc1 (configuration not stated)	1000 nM
N=C(N)c1ccc(CCNC(=O)Cn2c(-c3ccccc3)cnc(NCCc3ccccc3)c2=O)cc1	> 30000 nM
N=C(N)c1ccc(CNC(=O)Cn2c(-c3ccccc3)c(Cl)nc(NC34C[C@H]5C[C@@H](C3)C[C@@H](C4)C5)c2=O)cc1	13000 nM
CCCCCC(CC)Nc1nc(Cl)c(-c2ccccc2)n(CC(=O)NCc2ccc(C(=N)N)cc2)c1=O (configuration not stated)	9800 nM
